Assay results: publication PMC4374931 (PLoS ONE, 2015)
Where a name gives a salt, the structure may show the parent alone. Read-outs that look alike come from different tables or passages of the source.

What was measured:
in vitro = assay type: cell-based; conditions: human
Method: (§1) AIZ-AR cells were seeded in 96-well plates at density 5x10^4 cells per well. […] Following the incubation, MTT assay was measured spectrophotometrically at 540 nm using Tecan Infinite M2000 plate luminometer.

androgen receptor [1] = molecular target: androgen receptor; set-up: method as in Wilkinson et al.; conditions: published data; ref Wilkinson et al.; cited from earlier work
human androgen receptor = human androgen receptor (Homo sapiens, UniProt P10275); test: Gene reporter assay in AIZ-AR cells, agonist mode (luciferase); assay type: cell-based
Method: AIZ-AR cells were seeded in 96-well plates at density 5x10^4 cells per well. […] After the treatments, cells were lysed and luciferase activity was measured in 96-well plate format using Tecan Infinite M2000 plate luminometer.
Dose-response analyses assays were performed in two different experimental layouts. […] Where appropriate, IC50 (half maximal inhibitory concentration) values were calculated.

androgen receptor [2] = molecular target: androgen receptor; set-up: method as in Sedlak et al.; conditions: published data; ref Sedlak et al.; cited from earlier work
AIZ-AR cells = test: in vitro; assay type: cell-based; conditions: 24 h, MTT
Method: as §1

[3] = log c -5, 24 h, MTT, read-out: % of viability
[4] = log c -6, 24 h, MTT, read-out: % of viability
[5] = log c -7, 24 h, MTT, read-out: % of viability
[6] = log c -8, 24 h, MTT, read-out: % of viability
[7] = log c -9, 24 h, MTT, read-out: % of viability
[8] = log c -10, 24 h, MTT, read-out: % of viability

Chain of human androgen receptor (P10275 whole entry): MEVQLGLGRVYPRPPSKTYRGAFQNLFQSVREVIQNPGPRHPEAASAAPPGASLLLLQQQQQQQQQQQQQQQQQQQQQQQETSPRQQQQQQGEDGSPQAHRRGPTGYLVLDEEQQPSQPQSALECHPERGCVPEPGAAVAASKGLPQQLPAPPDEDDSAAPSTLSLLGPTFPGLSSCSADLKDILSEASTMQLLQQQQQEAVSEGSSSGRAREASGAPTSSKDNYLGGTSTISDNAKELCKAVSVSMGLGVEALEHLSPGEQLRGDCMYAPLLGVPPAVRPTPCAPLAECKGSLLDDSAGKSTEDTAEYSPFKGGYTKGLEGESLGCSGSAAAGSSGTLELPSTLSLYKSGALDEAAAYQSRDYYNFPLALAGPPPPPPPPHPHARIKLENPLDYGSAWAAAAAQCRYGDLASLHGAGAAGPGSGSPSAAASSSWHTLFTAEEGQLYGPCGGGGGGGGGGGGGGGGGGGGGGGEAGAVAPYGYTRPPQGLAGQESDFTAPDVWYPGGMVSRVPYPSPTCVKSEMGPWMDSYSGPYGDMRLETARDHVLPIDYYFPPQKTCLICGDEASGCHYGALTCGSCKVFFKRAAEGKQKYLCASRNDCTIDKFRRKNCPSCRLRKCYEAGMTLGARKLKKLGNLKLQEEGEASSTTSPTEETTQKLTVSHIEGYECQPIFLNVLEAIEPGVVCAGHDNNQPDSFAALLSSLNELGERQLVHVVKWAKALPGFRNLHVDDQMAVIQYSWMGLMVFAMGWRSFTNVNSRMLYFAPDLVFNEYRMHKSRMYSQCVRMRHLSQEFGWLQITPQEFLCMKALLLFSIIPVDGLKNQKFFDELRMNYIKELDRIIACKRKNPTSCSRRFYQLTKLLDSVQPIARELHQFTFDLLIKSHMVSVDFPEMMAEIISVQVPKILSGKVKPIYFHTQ

Structure (SMILES)	viability at 24 h, 0.1 nM (in vitro) [%]	viability at 24 h, 1 nM (in vitro) [%]	viability at 24 h, 10 nM (in vitro) [%]	viability at 24 h, 100 nM (in vitro) [%]	viability at 24 h, 1 μM (in vitro) [%]	viability at 24 h, 10 μM (in vitro) [%]	other results
CC(=O)[C@H]1CC[C@H]2[C@@H]3CCC4=CC(=O)CC[C@]4(C)[C@H]3CC[C@]12C [Progesterone, progesterone]	100	98.7 ± 7.3	98.7 ± 12.2	99.8 ± 14.1	98.1 ± 13.9	91 ± 9.5	
C[C@]12CC[C@@H]3c4ccc(O)cc4CC[C@H]3[C@@H]1CC[C@@H]2O [17β-estradiole, estradiol]	100	107 ± 4.3	110 ± 3.2	110 ± 6.2	110 ± 6.2	116 ± 16.4	
CC/C(=C(/CC)c1ccc(O)cc1)c1ccc(O)cc1 [Diethylstilbestrol, diethylstilbestrol]	100	101 ± 5.1	102 ± 7.6	102 ± 5.1	98 ± 4.3	99.9 ± 7	
CC(=O)O[C@]1(C(C)=O)CC[C@H]2[C@@H]3C=C(Cl)C4=CC(=O)[C@@H]5C[C@@H]5[C@]4(C)[C@H]3CC[C@@]21C [Cyproterone acetate, cyproterone acetate]	100	105 ± 1.7	105 ± 2	106 ± 5.7	99.4 ± 7.8	89.5 ± 6.6	
C[C@H]1C[C@@H]2[C@H]([C@@H](O)C[C@@]3(C)[C@H]2CC[C@]3(O)C(=O)CO)[C@@]2(C)C=CC(=O)C=C12 [Methyl-prednisolone, methylprednisolone]	100	107 ± 3.1	111 ± 9.4	105 ± 8.9	105 ± 14.3	105 ± 16	Literature Log EC50 (androgen receptor [1]): -8.75; Log EC50 (human androgen receptor; Clone 8, 24 h): -7.60 ± 0.43; Log EC50 (human androgen receptor; Clone 14, 24 h): -7.48 ± 0.30
C[C@]12C[C@H](O)[C@H]3[C@@H](CCC4=CC(=O)CC[C@@]43C)[C@@H]1CC[C@@H]2C(=O)CO [Corticosterone, corticosterone]	100	104	107 ± 2.5	111 ± 5.7	109 ± 6.5	105 ± 3.4	
C#C[C@]1(O)CC[C@H]2[C@@H]3CCC4=Cc5oncc5C[C@]4(C)[C@H]3CC[C@@]21C [Danazol]	100	106 ± 1.5	108 ± 6.9	109 ± 10.6	108 ± 11.6	114 ± 12.1	
CC/C(=C(\c1ccccc1)c1ccc(OCCN(C)C)cc1)c1ccccc1 [Tamoxifen citrate, tamoxifen citrate salt]	100	103 ± 4.3	107 ± 4.6	106 ± 3.8	88.5 ± 2.4	1.7 ± 0.8	
C[C@]12C=CC(=O)C=C1CC[C@@H]1[C@@H]2[C@@H](O)C[C@@]2(C)[C@H]1CC[C@]2(O)C(=O)CO [Prednisolone, prednisolone]	100	100.7 ± 0.8	104 ± 3.7	107 ± 5.2	104 ± 5.2	101 ± 8.3	
C[C@]12CCC(=O)C=C1CC[C@@H]1[C@@H]2[C@@H](O)C[C@@]2(C)[C@H]1CC[C@]2(O)C(=O)CO [Cortisol, cortisol]							Literature Log EC50 (androgen receptor [2]): > -5.00; viability at 24 h, 10 μM (in vitro; [3]): 105 ± 10.4%; viability at 24 h, 1 μM (in vitro; [4]): 107 ± 12.3%; viability at 24 h, 100 nM (in vitro; [5]): 107 ± 13.2%; viability at 24 h, 10 nM (in vitro; [6]): 106 ± 9.1%; viability at 24 h, 1 nM (in vitro; [7]): 109 ± 4.1%; viability at 24 h, 0.1 nM (in vitro; [8]): 100%; Literature Log EC50 (androgen receptor [1]): -8.22; potency weaker as compared to androgens (human androgen receptor): 2–3 orders of magnitude; effect on luciferase activity in agonist mode (human androgen receptor; 24 h): induced luciferase activity; Log EC50 (human androgen receptor; Clone 8, 24 h): -6.35 ± 0.11; Log EC50 (human androgen receptor; Clone 14, 24 h): -6.49 ± 0.04
O=C(c1ccc(OCCN2CCCCC2)cc1)c1c(-c2ccc(O)cc2)sc2cc(O)ccc12 [Raloxifene hydrochloride, raloxifene hydrochloride]	100	103 ± 8.5	99.8 ± 4.3	106 ± 6.8	95.9 ± 10.3	7.1 ± 0.2	
CC(=O)[C@H]1CC[C@H]2[C@@H]3CCC4=CC(=O)CC[C@]4(C)[C@H]3CC[C@]12C [17α-progesterone]							% of viability (AIZ-AR cells; log c -5): 92.0 ± 3.7%; % of viability (AIZ-AR cells; log c -6): 92.0 ± 3.7%; % of viability (AIZ-AR cells; log c -7): 95.0 ± 4.0%; % of viability (AIZ-AR cells; log c -8): 95.0 ± 4.0%; % of viability (AIZ-AR cells; log c -9): 98.2 ± 2.6%
C[C@H]1C[C@H]2[C@@H]3CCC4=CC(=O)C=C[C@]4(C)[C@@]3(F)[C@@H](O)C[C@]2(C)[C@@]1(O)C(=O)CO [Betamethasone, betamethasone]	100	105 ± 4	110 ± 7.3	109 ± 7.9	108 ± 14.6	101 ± 9.9	
C[C@]12CC[C@H]3[C@@H](CCC4=CC(=O)CC[C@@]43C)[C@@H]1CC[C@@H]2O [Testosterone, testosterone]							viability at 24 h, 10 μM (in vitro; [3]): 105.3 ± 1%; viability at 24 h, 1 μM (in vitro; [4]): 105 ± 6.9%; viability at 24 h, 100 nM (in vitro; [5]): 103 ± 5.6%; viability at 24 h, 10 nM (in vitro; [6]): 108 ± 4.8%; viability at 24 h, 1 nM (in vitro; [7]): 108.6 ± 1%; viability at 24 h, 0.1 nM (in vitro; [8]): 100%
C[C@H]1C[C@H]2[C@@H]3CCC4=CC(=O)C=C[C@]4(C)[C@@]3(Cl)[C@@H](O)C[C@]2(C)[C@@]1(O)C(=O)CO [Beclomethasone, beclomethasone]							% of viability (AIZ-AR cells; log c -5): 92.3 ± 2.1%; % of viability (AIZ-AR cells; log c -6): 98.4 ± 0.9%; % of viability (AIZ-AR cells; log c -7): 109.2 ± 5.7%; % of viability (AIZ-AR cells; log c -8): 106.5 ± 6.1%; % of viability (AIZ-AR cells; log c -9): 99.9 ± 3.9%
CC(=O)S[C@@H]1CC2=CC(=O)CC[C@]2(C)[C@H]2CC[C@@]3(C)[C@@H](CC[C@@]34CCC(=O)O4)[C@H]12 [Spironolactone, spironolactone]	100	108 ± 1.5	112 ± 5.7	113 ± 10	98.9 ± 5.5	58.9 ± 2.5	
C[C@@H]1C[C@H]2[C@@H]3CCC4=CC(=O)C=C[C@]4(C)[C@@]3(F)[C@@H](O)C[C@]2(C)[C@@]1(O)C(=O)CO [Dexamethasone, dexamethasone]	100	99.8 ± 3.9	114 ± 2	112.7 ± 1.1	111 ± 3.4	108 ± 2.6	
CC#C[C@]1(O)CC[C@H]2[C@@H]3CCC4=CC(=O)CCC4=C3[C@@H](c3ccc(N(C)C)cc3)C[C@@]21C [Mifepristone, mifepristone]	100	104 ± 2.8	102 ± 9.7	104 ± 18.2	94.7 ± 9.5	41.7 ± 1.1	
C[C@]12CCC(=O)C[C@@H]1CC[C@@H]1[C@@H]2CC[C@]2(C)[C@@H](O)CC[C@@H]12 [5α-dihydrotestosterone]							viability at 24 h, 10 μM (in vitro; [3]): 104 ± 2%; viability at 24 h, 1 μM (in vitro; [4]): 108 ± 2.6%; viability at 24 h, 100 nM (in vitro; [5]): 114 ± 5.7%; viability at 24 h, 10 nM (in vitro; [6]): 109 ± 2.1%; viability at 24 h, 1 nM (in vitro; [7]): 108 ± 4.6%; viability at 24 h, 0.1 nM (in vitro; [8]): 100%
C[C@]12C=CC(=O)C=C1CC[C@H]1[C@@H]3C[C@@H](O)[C@](O)(C(=O)CO)[C@@]3(C)C[C@H](O)[C@@]12F [Triamcinolone, triamcinolone]	100	101 ± 4.2	100 ± 8.2	105 ± 11.4	103 ± 11	101 ± 5.4	
